Measured values taken from US20060193880A1, “Method and compositions for attracting mosquitoes employing (R)-(+)-isomers of 1-alkyn-3-ols” (Bedoukian Research, Inc., priority 2005, published 2006).

What was measured:
Type in all cases: in vivo
[1] = system: mosquitoes; assay: Mosquito trap catch, Mosquito Magnet Pro units, Florida; conditions: release rates approx. 60 mg/day and 500 mg/day; 10-18 test days
Procedure: In tests performed in Florida using Mosquito Magnet Pro units, (R)-(+)-1-octyn-3-ol was compared with racemic 1-octyn-3-ol and (S)-(-)-1-octyn-3-ol at release rates of approximately 60 mg/day and 500 mg/day. The lures were rotated among the traps and compared to the same traps with no lure, all relative to a control trap. The (S)-(-)-1-octyn-3-ol caught an average of 39% more mosquitoes relative to the control than the traps when no lure was used (18 test days), the racemic 1-octyn-3-ol caught an average of 240% more mosquitoes than did no lure (10 test days), and the (R)-(+)-1-octyn-3-ol caught an average of 334% more mosquitoes than the traps with no lure (16 test days).

[2] = system: mosquitoes; assay: Mosquito trap catch with wax lure and CO2, model 1012 traps, Connecticut; conditions: wax lure, approx. 0.17 mg/hr release, CO2 approx. 140 ml/minute, average of four three-day cycles
Procedure: The following tests were conducted in Connecticut in September 2004. Mosquito traps model 1012 manufactured by John W. Hock Company in Gainesville, Florida were used in these experiments. The traps use a stream of CO2 directed in the vicinity of a collection bag, with a fan used to blow mosquitoes into the bag. The light supplied with the trap was turned off. The traps were spaced 65-70 feet apart at the edge of a wetland in Danbury, Conn., at least 25 feet from any buildings. The (R) and (S)-1-octyn-3-ol was incorporated into a wax lure of the type manufactured by BioSensory, Inc. and placed near a stream of CO2 which was being released at a rate of approximately 140 ml/minute. The traps were operated from approximately 4:00 PM until 9:00 AM the next day. Daytime temperatures were 70-75° F. during the trials. Average weight loss from the wax lures during the test was approximately 4 mg/day, or 0.17 mg/hr. Three traps were used, with either (R)-1-Octyn-3-ol, (S)-1-Octyn-3-ol, or no treatment, rotated among the traps over a three-day cycle. Four complete cycles were performed and the results for each treatment were averaged.
The traps with no attractant were considered as the baseline catch of mosquitoes and the results of the catches with the isomers were compared to this baseline value.

[3] = system: mosquitoes; assay: Mosquito trap catch, Mosquito Magnet Liberty traps, Danbury, Conn.; conditions: porous frit, 1 gram, releasing approx. 1 mg/h, rotated twice among four traps over eight days
Procedure: Tests were conducted with the Mosquito Magnet Liberty model manufactured by American Biophysics Corp. The traps were spaced 65-70 feet apart at the edge of a wetland in Danbury, Conn., at least 25 feet from any buildings. 1 gram of test chemical was added to a clean porous frit of the type normally used in the trap, releasing approximately 1 mg/h. (R)-(+)-1-octyn-3-ol, (S)-(-)-1-octyn-3-ol, (R)-(-)-1-octen-3-ol, and racemic 1-octen-3-ol were rotated twice among four traps over eight days, and the results for each attractant were compared.

| Compound | average more mosquitoes caught than the traps with no lure, relative to a control trap [1] | more mosquitoes captured than the baseline (traps with no attractant) [2] | less mosquitoes caught than the trap with the 50:50 racemic mixture of 1-octen-3-ol [3] | more mosquitoes caught than the trap with the 50:50 racemic mixture of 1-octen-3-ol [3] |
| --- | --- | --- | --- | --- |
| C#CC(O)CCCCC (racemic) [racemic 1-octyn-3-ol, 1-octyn-3-ol] | 240% |  |  |  |
| C#C[C@@H](O)CCCCC [(S)-(-)-1-octyn-3-ol] | 39% | 65% | 23% |  |
| C#C[C@H](O)CCCCC [(R)-(+)-1-octyn-3-ol] | 334% | 120% |  | 34% |
